Laboratory results as given in publication PMC11855478, “Bicyclic N,S-Acetals Containing Fused Cysteine-Amide System as New Heterocyclic Class Targeting Human Farnesyltransferase (FTase-h)” (International Journal of Molecular Sciences, 2025).

Tests used:
ACHN (Renal Cancer) = test: NCI one dose, ACHN; type: cell-based, human; conditions: 1.00E-5 Molar one dose
Experimental: (§1) 3.4. Cell Proliferation Assay
(§2) Selected compounds were tested on a panel of 60 human cancer cell lines at the National Cancer Institute (NCI), Germantown, MD, USA. The cytotoxicity studies were conducted using a 48 h exposure protocol using the sulfo-rhodamine B assay.

HCT-116 (Colon Cancer) = test: NCI one dose, HCT-116; type: cell-based, human; conditions: HCT-116, 1.00E-5 Molar one dose
Experimental: as §1, §2

RXF 393 (Renal Cancer) = test: NCI one dose, RXF 393; type: cell-based, human; conditions: RXF 393, 1.00E-5 Molar one dose
Experimental: as §1, §2

IGROV1 (Ovarian Cancer) = test: NCI one dose, IGROV1; type: cell-based, human; conditions: IGROV1, 1.00E-5 Molar one dose
Experimental: as §1, §2

K-562 leukaemia cells = test: NCI one dose, K-562; type: cell-based, human; conditions: K-562, 1.00E-5 Molar one dose
Experimental: as §1, §2

HS 578T (Breast Cancer) = test: NCI one dose, HS 578T; type: cell-based, human; conditions: 1.00E-5 Molar one dose
Experimental: as §1, §2

OVCAR-8 (Ovarian Cancer) = test: NCI one dose, OVCAR-8; type: cell-based, human; conditions: OVCAR-8, 1.00E-5 Molar one dose
Experimental: as §1, §2

M14 (Melanoma) = test: NCI one dose, M14; type: cell-based, human; conditions: M14, 1.00E-5 Molar one dose
Experimental: as §1, §2

HCT-15 (Colon Cancer) = test: NCI one dose, HCT-15; type: cell-based, human; conditions: HCT-15, 1.00E-5 Molar one dose
Experimental: as §1, §2

SK-MEL-5 (Melanoma) = test: NCI one dose, SK-MEL-5; type: cell-based, human; conditions: SK-MEL-5, 1.00E-5 Molar one dose
Experimental: as §1, §2

[1] = test system: MDA-MB-231/ATCC (Breast Cancer); test: NCI one dose, MDA-MB-231/ATCC; type: cell-based, human; conditions: 1.00E-5 Molar one dose
Experimental: as §1, §2

SF-295 (CNS Cancer) = test: NCI one dose, SF-295; type: cell-based, human; conditions: SF-295, 1.00E-5 Molar one dose
Experimental: as §1, §2

MALME-3M (Melanoma) = test: NCI one dose, MALME-3M; type: cell-based, human; conditions: 1.00E-5 Molar one dose
Experimental: as §1, §2

[2] = test system: A549/ATCC (Non-Small Cell Lung Cancer); test: NCI one dose, A549/ATCC; type: cell-based, human; conditions: 1.00E-5 Molar one dose
Experimental: as §1, §2

[3] = test system: panel of 60 human cancer cell lines; test: NCI 60 cell panel one dose screen (whole panel); type: cell-based; design: Delta (One Dose Mean Graph): unit not given here; conditions: 1.00E-5 Molar one dose; for Range (One Dose Mean Graph): in % (unit assumed); for Mean Growth Percent: mean over tested cell lines
Experimental: as §1
Selected compounds were tested on a panel of 60 human cancer cell lines at the National Cancer Institute (NCI), Germantown, MD, USA. The cytotoxicity studies were conducted using a 48 h exposure protocol using the sulfo-rhodamine B assay. […]
X. NCI One Dose Mean Graph of sulfides 4a(A -J) and 4b(A-J)
The entire series of sulfides regrouping twenty synthesized FTI-candidates (4aA-J, 4bA-J) were selected by the National Cancer Institute (NCI) for evaluation of their antiproliferative activity against 60 cancer cell lines (see the followings twenty pages for full evaluation reports). […]
inhibiting 36% of the NCI-H522 cells. Such difference between IC50 on human FTase in the nanomolar range and IC50 on cancer cell growth in the micromolar range is characteristic to potent FTIs and was reported previously on different series of compounds (see for example ref erence in the references part […]
Of interest, none of the tested compounds at a high single dose (10 µM) in the full NCI 60 cell panel has shown a cytotoxic profile. […]
inhibitory potential on FTase raise good hope for further investigation of these series as agents fighting

U251 (CNS Cancer) = test: NCI one dose, U251; type: cell-based, human; conditions: U251, 1.00E-5 Molar one dose
Experimental: as §1, §2

HT29 (Colon Cancer) = test: NCI one dose, HT29; type: cell-based, human; conditions: HT29, 1.00E-5 Molar one dose
Experimental: as §1, §2

SF-539 (CNS Cancer) = test: NCI one dose, SF-539; type: cell-based, human; conditions: SF-539, 1.00E-5 Molar one dose
Experimental: as §1, §2

MOLT-4 (Leukemia) = test: NCI one dose, MOLT-4; type: cell-based, human; conditions: MOLT-4, 1.00E-5 Molar one dose
Experimental: as §1, §2

[4] = test system: NCI-H23 (Non-Small Cell Lung Cancer); test: NCI one dose, NCI-H23; type: cell-based, human; conditions: NCI-H23, 1.00E-5 Molar one dose
Experimental: as §1, §2

786-0 (Renal Cancer) = test: NCI one dose, 786-0; type: cell-based, human; conditions: 786-0, 1.00E-5 Molar one dose
Experimental: as §1, §2

SK-MEL-2 (Melanoma) = test: NCI one dose, SK-MEL-2; type: cell-based, human; conditions: SK-MEL-2, 1.00E-5 Molar one dose
Experimental: as §1, §2

A498 (Renal Cancer) = test: NCI one dose, A498; type: cell-based, human; conditions: A498, 1.00E-5 Molar one dose
Experimental: as §1, §2

UACC-62 (Melanoma) = test: NCI one dose, UACC-62; type: cell-based, human; conditions: UACC-62, 1.00E-5 Molar one dose
Experimental: as §1, §2

SNB-19 (CNS Cancer) = test: NCI one dose, SNB-19; type: cell-based, human; conditions: SNB-19, 1.00E-5 Molar one dose
Experimental: as §1, §2

[5] = test system: EKVX (Non-Small Cell Lung Cancer); test: NCI one dose, EKVX; type: cell-based, human; conditions: 1.00E-5 Molar one dose
Experimental: as §1, §2

[6] = test system: NCI-H322M (Non-Small Cell Lung Cancer); test: NCI one dose, NCI-H322M; type: cell-based, human; conditions: 1.00E-5 Molar one dose
Experimental: as §1, §2

CCRF-CEM (Leukemia) = test: NCI one dose, CCRF-CEM; type: cell-based, human; conditions: 1.00E-5 Molar one dose
Experimental: as §1, §2

OVCAR-5 (Ovarian Cancer) = test: NCI one dose, OVCAR-5; type: cell-based, human; conditions: OVCAR-5, 1.00E-5 Molar one dose
Experimental: as §1, §2

OVCAR-4 (Ovarian Cancer) = test: NCI one dose, OVCAR-4; type: cell-based, human; conditions: OVCAR-4, 1.00E-5 Molar one dose
Experimental: as §1, §2

[7] = test system: HOP-92 (Non-Small Cell Lung Cancer); test: NCI one dose, HOP-92; type: cell-based, human; conditions: HOP-92, 1.00E-5 Molar one dose
Experimental: as §1, §2

Row | Structure (SMILES) | Growth Percent (ACHN (Renal Cancer)) [%] | Growth Percent (HCT-116 (Colon Cancer)) [%] | Growth Percent (RXF 393 (Renal Cancer)) [%] | Growth Percent (IGROV1 (Ovarian Cancer)) [%] | Growth Percent (K-562 leukaemia cells) [%] | Growth Percent (HS 578T (Breast Cancer)) [%] | Growth Percent (OVCAR-8 (Ovarian Cancer)) [%] | Growth Percent (M14 (Melanoma)) [%] | Growth Percent (HCT-15 (Colon Cancer)) [%] | Growth Percent (SK-MEL-5 (Melanoma)) [%] | Growth Percent [1] [%] | Growth Percent (SF-295 (CNS Cancer)) [%] | Growth Percent (MALME-3M (Melanoma)) [%] | Growth Percent [2] [%] | Delta (One Dose Mean Graph) [3] | Range (One Dose Mean Graph) [3] | Mean Growth Percent [3] [%] | Growth Percent (U251 (CNS Cancer)) [%] | Growth Percent (HT29 (Colon Cancer)) [%] | Growth Percent (SF-539 (CNS Cancer)) [%] | further results
1 | COc1ccc(CNC(=O)[C@@H]2CS[C@H]3c4ccccc4C(=O)N23)cc1 [4aF] | 95.49 | 101.21 | 117.51 | 93.78 | 99.90 | 104.20 | 99.52 | 99.91 | 100.29 | 110.95 | 107.73 | 95.57 | 100.21 | 95.62 | 26.11 | 46.82 | 101.29 | 98.53 | 103.88 | 107.51 | Growth Percent (MOLT-4 (Leukemia)): 97.28%; Growth Percent [4]: 108.19%; Growth Percent (786-0 (Renal Cancer)): 97.97%; Growth Percent (SK-MEL-2 (Melanoma)): 118.58%; Growth Percent (A498 (Renal Cancer)): 105.77%; Growth Percent (UACC-62 (Melanoma)): 91.16%; Growth Percent (SNB-19 (CNS Cancer)): 90.14%; Growth Percent [5]: 106.31%; Growth Percent [6]: 88.19%; Growth Percent (CCRF-CEM (Leukemia)): 97.27%; Growth Percent (OVCAR-5 (Ovarian Cancer)): 95.48%; Growth Percent (OVCAR-4 (Ovarian Cancer)): 110.64%; Growth Percent [7]: 86.03%
2 | COc1cc(CNC(=O)[C@@H]2CS[C@H]3c4ccccc4C(=O)N23)cc(OC)c1OC [4aJ] | 100.59 | 92.64 | 110.79 | 102.86 | 90.55 | 101.31 | 103.46 | 94.92 | 107.89 | 107.99 | 84.71 | 107.19 | 105.79 | 98.15 | 15.66 | 30.62 | 98.66 | 104.21 | 103.83 | 89.92 | Growth Percent (MOLT-4 (Leukemia)): 90.32%; Growth Percent [4]: 100.31%; Growth Percent (786-0 (Renal Cancer)): 90.66%; Growth Percent (SK-MEL-2 (Melanoma)): 95.25%; Growth Percent (A498 (Renal Cancer)): 100.74%; Growth Percent (UACC-62 (Melanoma)): 92.01%; Growth Percent (SNB-19 (CNS Cancer)): 92.64%; Growth Percent [5]: 101.46%; Growth Percent [6]: 107.00%; Growth Percent (CCRF-CEM (Leukemia)): 96.01%; Growth Percent (OVCAR-5 (Ovarian Cancer)): 94.62%; Growth Percent (OVCAR-4 (Ovarian Cancer)): 104.76%; Growth Percent [7]: 93.68%
3 | O=C(NCc1ccc(Cl)cc1Cl)[C@@H]1CS[C@H]2c3ccccc3C(=O)N12 [4aH] | 99.60 | 83.47 | 105.25 | 101.47 | 91.56 | 113.78 | 97.57 | 99.48 | 102.53 | 109.91 | 110.76 | 95.60 | 107.73 | 97.39 | 24.18 | 40.81 | 97.15 | 95.21 | 96.30 | 106.56 | Growth Percent (MOLT-4 (Leukemia)): 79.54%; Growth Percent [4]: 99.59%; Growth Percent (786-0 (Renal Cancer)): 89.83%; Growth Percent (SK-MEL-2 (Melanoma)): 99.61%; Growth Percent (A498 (Renal Cancer)): 101.60%; Growth Percent (UACC-62 (Melanoma)): 85.33%; Growth Percent (SNB-19 (CNS Cancer)): 97.06%; Growth Percent [5]: 100.24%; Growth Percent [6]: 91.63%; Growth Percent (CCRF-CEM (Leukemia)): 92.66%; Growth Percent (OVCAR-5 (Ovarian Cancer)): 104.58%; Growth Percent (OVCAR-4 (Ovarian Cancer)): 106.54%; Growth Percent [7]: 75.56%
